The values that follow come from patent US9476099B2 (TRUSTEES OF DARTMOUTH COLLEGE, priority 2012, dated 2016).

In assay [1] the test system is NT2/D1 cells. As to the kind of experiment: Gene expression microarray with PAM cluster analysis (Tables 1-5). It is filed as cell-based, human. The settings on record: 1.5-fold or greater. Here is the method:
The cisplatin treatment protocol has been previously described (Kerley-Hamilton et al. 2005. Oncogene 24:6090-6100).
The same effect was not observed in cells treated with cisplatin; gene expression levels were not dramatically altered in cisplatin-treated cells. […] The genes clustered into distinct patterns.
Next, partitioning around medoids (PAM) analysis was performed on the 1130 genes whose expression levels changed by 1.5-fold or greater as compared to control treatment. […] Changes in gene expression levels of representative genes for each cluster were confirmed in independent samples by real-time PCR (FIG. 10).
Expression analysis was performed on the […] HumanHT-12 v3 or […] HumanHT-12 v4 bead chip arrays ([…]) and scanned on the BeadArray Reader ([…]) according to manufacturer's instructions.

For assay [2], the system named is gene promoters in NT2/D1 cells. Description: Global DNA promoter methylation analysis, HumanMethylation27 BeadChip. It is filed as cell-based, human. Particulars: 3 day low dose decitabine. Here is the method:
However, methylation changes were less robust in the experiments in NT2/D1 cells. Only 12 genes were identified as having significant decreases in promoter methylation. […] These six genes included RIN1, SOX15, TLR4, GPER, TRIM54, and CD164L2.
DNA methylation analysis was performed in samples in triplicate using the […] […] assay with the HumanMethylation27 BeadChip ([…]) and the BeadChip was scanned on the BeadArray Reader ([…]), according to the manufacturer's instructions. Raw data was normalized and analyzed with Genome Studio software ([…]). The HumanMethylation27 BeadChip assays 27,578 CpGs covering more than 14,000 genes, mostly from promoter regions. […] Hierarchical clustering was performed as stated above. HumanMethylation27 BeadChip data and gene expression microarray data were submitted to NCBI GEO.

As to `Nc1ncn([C@H]2C[C@H](O)[C@@H](CO)O2)c(=O)n1` [decitabine, 5-aza-deoxycytidine], the “Cluster 1: genes primarily up-regulated only with 3 days of decitabine treatment” value in assay [1] (10 nM, 3 days) was 704 genes. In assay [1], the “Cluster 3: genes upregulated by both decitabine treatment and cisplatin treatment” value turned out to be 71 genes; the “Cluster 4: genes down-regulated by decitabine, enriched in pluripotency genes” value was found to be 186 genes; the “Cluster 5: genes down-regulated by both decitabine treatment and cisplatin treatment” value is 88 genes. Moreover, the “genes with significant decreases in promoter methylation” value in assay [2] was determined as 12 genes.
